The numbers were not newly measured in patent publication US6482908B1, “Template-directed ring-closing metathesis and ring-opening metathesis polymerization of functionalized dienes” (California Institute of Technology, priority 1997, dated 2002), which cites them from elsewhere.

The series relates to cell attachment and spreading.

Consider “Gly-Arg-Gly-Asp-Tyr (GRGDY; printed: Gly-Arg-Gly-Asp-Tyr) [oligopeptide immobilized onto glass substrate, literature adhesion agent]”, for which the “cell adhesion activity of immobilized peptide” value (immobilized onto a poorly adhesive glass substrate) is listed as “extremely potent adhesion agent”. The “minimum surface density necessary to induce normal cell attachment and spreading” value (peptide immobilized onto poorly adhesive glass substrate, ~140 nm between peptides) is 10 fmol/cm^2.
